Data as given in ChEMBL document CHEMBL5576052, “Design, synthesis, and biological evaluation of new bis-benzylisoquinoline-based analogues as potential neuromuscular blocking agents” (Bioorg Med Chem Lett, 2024).

What was measured:
Type in all cases: functional
Oryctolagus cuniculus [1] = experiment: Neuromuscular blocking in rabbit model of propofol-induced anesthesia assessed as effective blocking time by measuring duration from administration to 25 percent recovery at 27.27 nmol/kg by train-of-four response method
Oryctolagus cuniculus [2] = experiment: Neuromuscular blocking in rabbit model of propofol-induced anesthesia assessed as time duration of 25 to 90 percent recovery indices at 0.06 mg/kg of inductive dose with continuous infusion of compound measured for 0.5 hrs by train-of-four response method
Oryctolagus cuniculus [3] = experiment: Neuromuscular blocking in rabbit model of propofol-induced anesthesia assessed as time duration of 75 to 90 percent recovery indices at 0.06 mg/kg of inductive dose with continuous infusion of compound measured for 0.5 hrs by train-of-four response method
Oryctolagus cuniculus [4] = experiment: Neuromuscular blocking in rabbit model of propofol-induced anesthesia assessed as time duration of 25 to 75 percent recovery indices at 0.06 mg/kg of inductive dose with continuous infusion of compound measured for 1 hr by train-of-four response method
Oryctolagus cuniculus [5] = experiment: Neuromuscular blocking in rabbit model of propofol-induced anesthesia assessed as time duration of 25 to 75 percent recovery indices at 0.06 mg/kg of inductive dose with continuous infusion of compound measured for 2 hrs by train-of-four response method
Oryctolagus cuniculus [6] = experiment: Neuromuscular blocking in rabbit model of propofol-induced anesthesia assessed as maximal blockade at 27.27 nmol/kg by train-of-four response method relative to control
Oryctolagus cuniculus [7] = experiment: Neuromuscular blocking in rabbit model of propofol-induced anesthesia assessed as time duration of 25 to 90 percent recovery indices at 0.06 mg/kg of inductive dose with continuous infusion of compound measured for 2 hrs by train-of-four response method
Oryctolagus cuniculus [8] = experiment: Neuromuscular blocking in rabbit model of propofol-induced anesthesia assessed as time duration of 75 to 90 percent recovery indices at 0.06 mg/kg of inductive dose with continuous infusion of compound measured for 2 hrs by train-of-four response method
Oryctolagus cuniculus [9] = experiment: Neuromuscular blocking in rabbit model of propofol-induced anesthesia assessed as time duration of 25 to 90 percent recovery indices at 0.06 mg/kg of inductive dose with continuous infusion of compound measured for 1 hr by train-of-four response method
Oryctolagus cuniculus [10] = experiment: Neuromuscular blocking in rabbit model of propofol-induced anesthesia assessed as onset time at 272.7 nmol/kg by train-of-four response method
Oryctolagus cuniculus [11] = experiment: Neuromuscular blocking in rabbit model of propofol-induced anesthesia assessed as time duration of 25 to 90 percent recovery indices at 272.7 nmol/kg by train-of-four response method
Oryctolagus cuniculus [12] = experiment: Neuromuscular blocking in rabbit model of propofol-induced anesthesia assessed as maximal blockade at 272.7 nmol/kg by train-of-four response method relative to control
Oryctolagus cuniculus [13] = experiment: Neuromuscular blocking in rabbit model of propofol-induced anesthesia assessed as time duration of 25 to 75 percent recovery indices at 272.7 nmol/kg by train-of-four response method
Oryctolagus cuniculus [14] = experiment: Neuromuscular blocking in rabbit model of propofol-induced anesthesia assessed as time duration of 25 to 90 percent recovery indices at 27.27 nmol/kg by train-of-four response method
Oryctolagus cuniculus [15] = experiment: Neuromuscular blocking in rabbit model of propofol-induced anesthesia assessed as duration of time for maximal blockade at 27.27 nmol/kg by train-of-four response method
Oryctolagus cuniculus [16] = experiment: Neuromuscular blocking in rabbit model of propofol-induced anesthesia assessed as duration of time for maximal blockade at 272.7 nmol/kg by train-of-four response method
Oryctolagus cuniculus [17] = experiment: Neuromuscular blocking in rabbit model of propofol-induced anesthesia assessed as onset time at 27.27 nmol/kg by train-of-four response method
Oryctolagus cuniculus [18] = experiment: Neuromuscular blocking in rabbit model of propofol-induced anesthesia assessed as time duration of 25 to 75 percent recovery indices at 0.06 mg/kg of inductive dose with continuous infusion of compound measured for 0.5 hrs by train-of-four response method
Oryctolagus cuniculus [19] = experiment: Neuromuscular blocking in rabbit model of propofol-induced anesthesia assessed as time duration of 75 to 90 percent recovery indices at 0.06 mg/kg of inductive dose with continuous infusion of compound measured for 1 hr by train-of-four response method
Oryctolagus cuniculus [20] = experiment: Neuromuscular blocking in rabbit model of propofol-induced anesthesia assessed as time duration of 25 to 75 percent recovery indices at 27.27 nmol/kg by train-of-four response method
Oryctolagus cuniculus [21] = experiment: Neuromuscular blocking in rabbit model of propofol-induced anesthesia assessed as effective blocking time by measuring duration from administration to 25 percent recovery at 272.7 nmol/kg by train-of-four response method
Oryctolagus cuniculus [22] = experiment: Neuromuscular blocking in rabbit model of propofol-induced anesthesia assessed as time duration of 25 to 75 percent recovery indices at 0.33 mg/kg of inductive dose with continuous infusion of compound measured for 0.5 hrs by train-of-four response method
Oryctolagus cuniculus [23] = experiment: Neuromuscular blocking in rabbit model of propofol-induced anesthesia assessed as time duration of 75 to 90 percent recovery indices at 0.33 mg/kg of inductive dose with continuous infusion of compound measured for 0.5 hrs by train-of-four response method
Oryctolagus cuniculus [24] = experiment: Neuromuscular blocking in rabbit model of propofol-induced anesthesia assessed as time duration of 25 to 90 percent recovery indices at 0.33 mg/kg of inductive dose with continuous infusion of compound measured for 0.5 hrs by train-of-four response method

| SMILES | Time (Oryctolagus cuniculus [1]) [min] | Time (Oryctolagus cuniculus [2]) [min] | Time (Oryctolagus cuniculus [3]) [min] | Time (Oryctolagus cuniculus [4]) [min] | Time (Oryctolagus cuniculus [5]) [min] | Emax at 0.02727 µmol/kg (Oryctolagus cuniculus [6]) [%] | Time (Oryctolagus cuniculus [7]) [min] | Time (Oryctolagus cuniculus [9]) [min] | Time (Oryctolagus cuniculus [10]) [min] | Time (Oryctolagus cuniculus [11]) [min] | Emax at 0.2727 µmol/kg (Oryctolagus cuniculus [12]) [%] | Time (Oryctolagus cuniculus [13]) [min] | Time (Oryctolagus cuniculus [14]) [min] | Time (Oryctolagus cuniculus [15]) [min] | Time (Oryctolagus cuniculus [16]) [min] | Time (Oryctolagus cuniculus [17]) [min] | Time (Oryctolagus cuniculus [18]) [min] | Time (Oryctolagus cuniculus [19]) [min] | Time (Oryctolagus cuniculus [20]) [min] | Time (Oryctolagus cuniculus [21]) [min] | also measured |
| --- | --- | --- | --- | --- | --- | --- | --- | --- | --- | --- | --- | --- | --- | --- | --- | --- | --- | --- | --- | --- | --- |
| COc1cc2c(cc1OC)[C@@H](Cc1cc(OC)c(OC)c(OC)c1)[N@+](C)(CCCOC(=O)CC/C=C/CCC(=O)OCCC[N@+]1(C)CCc3cc(OC)c(OC)cc3[C@H]1Cc1cc(OC)c(OC)c(OC)c1)CC2.[Cl-].[Cl-] | 5.58 | 10.73 | 3.6 | 6.96 | 4.58 | 100 | 7.75 | 9.63 | 0.67 | 13.92 | 100 | 11.25 | 15.08 | 4.25 | 14.67 | 1.88 | 7.13 | 2.67 | 9.22 | 19.58 | Time (Oryctolagus cuniculus [8]): 3.17 min |
| COc1cc2c(cc1OC)[C@@H](Cc1cc(OC)c(OC)c(OC)c1)[N+](C)(CCCOC(=O)CC/C=C/CCC(=O)OCCC[N+]1(C)CCc3cc(OC)c(OC)cc3[C@H]1Cc1cc(OC)c(OC)c(OC)c1)CC2.[Cl-].[Cl-] (stereo partly drawn) [MIVACURIUM CHLORIDE] | 7.92 | 11.5 | 3.5 | 8.5 | 4.92 | 100 | 9 | 11.79 | 0.79 | 9.71 | 100 | 6.54 | 11.42 | 4.42 | 15.79 | 1.58 | 8 | 3.29 | 7.75 | 18.57 | Time (Oryctolagus cuniculus [8]): 4.83 min |
| COc1cc2c(cc1OC)[C@@H](Cc1cc(OC)c(OC)c(OC)c1)[N@@+](C)(CCCOC(=O)CC/C=C/CCC(=O)OCCC[N@+]1(C)CCc3cc(OC)c(OC)cc3[C@H]1Cc1cc(OC)c(OC)c(OC)c1)CC2.[Cl-].[Cl-] (mixture of isomers) |  | 11.1 | 4.2 | 7.08 |  | 80 |  | 12.42 | 0.83 | 13.42 | 100 | 10.5 | 8.92 | 1.92 | 21.42 | 3.58 | 6.9 | 5.33 | 4.92 | 24.5 |  |
| COc1cc2c(cc1OC)[C@@H](Cc1cc(OC)c(OC)c(OC)c1)[N+](C)(CCC(=O)OC/C=C\COC(=O)CC[N+]1(C)CCc3cc(OC)c(OC)cc3[C@H]1Cc1cc(OC)c(OC)c(OC)c1)CC2.O=S(=O)([O-])c1ccccc1.O=S(=O)([O-])c1ccccc1 (stereo partly drawn) |  |  |  |  |  |  |  |  | 1.67 | 10.25 | 100 | 7.5 |  |  | 8.25 |  |  |  |  | 11.83 | Time (Oryctolagus cuniculus [22]): 8 min; Time (Oryctolagus cuniculus [23]): 3.17 min; Time (Oryctolagus cuniculus [24]): 11.17 min |
